Assay results as given in patent publication US7652057B2, “Pyrazolones as 11b-HSD1 inhibitors for diabetes” (Hoffman-La Roche Inc., priority 2005, dated 2010).

Target: T1, human 11beta-HSD1 (Homo sapiens, UniProt P28845)
T1 construct: made in house; host or cells: HEK293 cells (ATCC CRL-1573), transient transfection with a pcDNA3 construct; microsomal fraction
Experiment: Microsome assay (cortisone to cortisol conversion, ELISA)
Assay type: biochemical
Conditions: microsomes from HEK293 cells transiently expressing human 11beta-HSD1; Cortisone 50-200 nM, NADPH 1 mM, 60 min at 37° C.; read-out: h 11-beta-HSD 1 IC50
Experimental: The cDNA encoding the human 11beta-HSD1 protein was cloned into the expression vector pcDNA3 ([…]). This construct (for details see Alex Odermatt et al.; J Biol Chem., 1999, Vol. 274, Issue 40, 28762-28770) was used to transiently express the protein in HEK293 cells (ATCC number: CRL-1573, described in Graham, F. L., Smiley, J., Russell, W. C., Nairn, R.; (1977)) using lipofectamine. 48 h after transfection cells were washed twice with ice-cold PBS (Phosphate buffered Saline). To 1 volume of cell suspension in PBS 2 volumes of ice-cold lysis buffer (50 mM Tris; pH7.5; 1 mM EDTA; 100 mM NaCl) were added. The cells were lysed by Potter-homogenization (20 strokes). The resulting homogenate was sonicated wit a tip sonicator (10% output; 2×30 sec.) and cleared by a low speed centrifugation (10 min×9000 g; 4° C.). The microsomal fraction was collected by a high speed centrifugation (60 min×110'000 g). […]
Microsomes isolated from HEK293 cells transiently expressing human 11beta-HSD1 (for details see above) were incubated in assay buffer (100 mM NaCl; 1 mM EDTA; 1 mM EGTA; 1 mM MgCl; 250 mM Sucrose; 20 mM Tris pH 7.4; Cortisone 50-200 nM and NADPH 1 mM) together with different concentrations of test substances. […] The amount of Cortisol produced in this assay was determined using a commercially available, ELISA-based Cortisol-detection kit (Distributed by Assay Design, Inc.). […]

T1 sequence (P28845 whole entry): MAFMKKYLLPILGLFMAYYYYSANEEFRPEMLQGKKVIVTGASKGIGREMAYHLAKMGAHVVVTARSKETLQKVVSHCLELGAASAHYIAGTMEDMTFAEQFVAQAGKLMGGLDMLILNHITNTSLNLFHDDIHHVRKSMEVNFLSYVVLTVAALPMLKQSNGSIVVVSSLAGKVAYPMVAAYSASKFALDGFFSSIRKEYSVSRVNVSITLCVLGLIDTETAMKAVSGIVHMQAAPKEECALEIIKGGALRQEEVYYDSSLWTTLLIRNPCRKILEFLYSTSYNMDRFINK

IC50 [nM]	Compound
133	Cc1c(C23CC4CC(CC(C4)C2)C3)c(=O)n2n1CCCCC2 [Example 51, 2-adamantan-1-yl-3-methyl-6,7,8,9-tetrahydro-5H-pyrazolo[1,2-a][1,2]diazepin-1-one]
21	Cn1c(C2CC2)c(C2CC2)c(=O)n1-c1ccccc1 [Example 1, 4,5-Dicyclopropyl-1-methyl-2-phenyl-1,2-dihydro-pyrazol-3-one]
